Tested on: 885724-159-R-J1-PDC KRAS PDC multicell spheroid viability
Assay: Anticancer human tumor 885724-159-R-J1-PDC patient-derived pancreatic adenocarcinoma cell line growth inhibition [KRAS2]
Conditions: for IC50: curve of first compound; for viability, T/C: stronger effect = lower value
Method in brief: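 Combination screen of spheroid viability in tumor-cell co-cultures with endothelial (HUVEC) and mesenchymal stem cell stroma. Each agent was tested in half-log dilutions, topping at clinical Cmax or at 10 microM without a known Cmax.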

[1] = second compound 0.1 µM, first compound 0.000316 µM
[2] = second compound 0.1 µM, first compound 0.001 µM
[3] = second compound 0.1 µM, first compound 0.00316 µM
[4] = second compound 0.1 µM, first compound 0.01 µM
[5] = second compound 0.1 µM, first compound 0.0316 µM
[6] = second compound 0.316 µM, first compound 0.000316 µM
[7] = second compound 0.316 µM, first compound 0.001 µM
[8] = second compound 0.316 µM, first compound 0.00316 µM
[9] = second compound 0.316 µM, first compound 0.01 µM
[10] = second compound 0.316 µM, first compound 0.0316 µM
[11] = second compound 1 µM, first compound 0.000316 µM
[12] = second compound 1 µM, first compound 0.001 µM
[13] = second compound 1 µM, first compound 0.00316 µM
[14] = second compound 1 µM, first compound 0.01 µM
[15] = second compound 1 µM, first compound 0.0316 µM
[16] = second compound 3.16 µM, first compound 0.000316 µM
[17] = second compound 3.16 µM, first compound 0.001 µM
[18] = second compound 3.16 µM, first compound 0.00316 µM
[19] = second compound 3.16 µM, first compound 0.01 µM
[20] = second compound 3.16 µM, first compound 0.0316 µM
[21] = second compound 10 µM, first compound 0.000316 µM
[22] = second compound 10 µM, first compound 0.001 µM
[23] = second compound 10 µM, first compound 0.00316 µM
[24] = second compound 10 µM, first compound 0.01 µM
[25] = second compound 10 µM, first compound 0.0316 µM
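Further: spheroids exposed to agents for 7 days before readout.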

SMILES	IC50 (second compound 0.1 µM) [nM]	IC50 (second compound 0.316 µM) [nM]	IC50 (second compound 1 µM) [nM]	IC50 (second compound 3.16 µM) [nM]	IC50 (second compound 10 µM) [nM]	viability, T/C [1] [%]	viability, T/C [2] [%]	viability, T/C [3] [%]	viability, T/C [4] [%]	viability, T/C [5] [%]	viability, T/C [6] [%]	viability, T/C [7] [%]	viability, T/C [8] [%]	viability, T/C [9] [%]	viability, T/C [10] [%]	viability, T/C [11] [%]	viability, T/C [12] [%]	viability, T/C [13] [%]	viability, T/C [14] [%]	viability, T/C [15] [%]	further results
CC(=O)Nc1cccc(-n2c(=O)n(C3CC3)c(=O)c3c(Nc4ccc(I)cc4F)n(C)c(=O)c(C)c32)c1 + CNCc1ccccc1-c1csc(C(C)Nc2nc(C)nc3cc(OC)c(OC)cc23)c1	0.893	0.824	0.519	< 0.1	< 0.1	71.2	43.9	34.7	24.7	16.2	70.2	43.9	30.3	20.5	12.9	63.7	30.5	20.6	6.76	1.59	viability, T/C (second compound 0.1 µM, first compound 0.0001 µM): 90.3%; viability, T/C (second compound 0.316 µM, first compound 0.0001 µM): 90.4%; viability, T/C (second compound 1 µM, first compound 0.0001 µM): 90.8%; viability, T/C (second compound 3.16 µM, first compound 0.0001 µM): 1.26%; viability, T/C [16]: 0.83%; viability, T/C [17]: 0.53%; viability, T/C [18]: 0.68%; viability, T/C [19]: 0.79%; viability, T/C [20]: 1.69%; viability, T/C (second compound 10 µM, first compound 0.0001 µM): 0.21%; viability, T/C [21]: 0.24%; viability, T/C [22]: 0.25%; viability, T/C [23]: 0.37%; viability, T/C [24]: 0.34%; viability, T/C [25]: 0.69%
CN(C)C/C=C/C(=O)Nc1cc2c(Nc3ccc(F)c(Cl)c3)ncnc2cc1O[C@H]1CCOC1 + CNCc1ccccc1-c1csc(C(C)Nc2nc(C)nc3cc(OC)c(OC)cc23)c1	> 100	> 100	> 100	2.35	< 0.316	104	95.4	93.2	89.8	77.9	108	107	86.6	81.7	74	109	104	94.6	83.1	70.3	viability, T/C (second compound 0.1 µM, first compound 0.1 µM): 66.7%; viability, T/C (second compound 0.316 µM, first compound 0.1 µM): 63.4%; viability, T/C (second compound 1 µM, first compound 0.1 µM): 67.5%; viability, T/C [16]: 105%; viability, T/C [17]: 123%; viability, T/C [18]: 0.97%; viability, T/C [19]: 0.27%; viability, T/C [20]: 71.9%; viability, T/C (second compound 3.16 µM, first compound 0.1 µM): 38%; viability, T/C [21]: 0.22%; viability, T/C [22]: 0.26%; viability, T/C [23]: 0.18%; viability, T/C [24]: 0.15%; viability, T/C [25]: 0.22%; viability, T/C (second compound 10 µM, first compound 0.1 µM): 0.25%
